Numbers after ± are expanded uncertainties.
Assay: excess molar enthalpy (molar enthalpy of mixing); xn = mol fraction of the nth substance listed
Conditions: Fluid (supercritical or subcritical phases), Flow calorimetry

CC(C)OC(C)C [diisopropyl ether] + O=C=O
excess molar enthalpy [kcal/mol]
Conditions	298.15 K	303.15 K	308.15 K
5000 kPa, x2 = 0.1255	-0.279 ± 0.00598	-0.251 ± 0.0055	-0.293 ± 0.00621
5000 kPa, x2 = 0.2326	-0.527 ± 0.0112	-0.526 ± 0.0112	-0.53 ± 0.0112
5000 kPa, x2 = 0.3249	-0.734 ± 0.0155	-0.741 ± 0.0158	-0.745 ± 0.0158
5000 kPa, x2 = 0.4054	-0.913 ± 0.0194	-0.922 ± 0.0196	-0.924 ± 0.0196
5000 kPa, x2 = 0.4762	-1.07 ± 0.0229	-1.08 ± 0.0229	-1.09 ± 0.0232
5000 kPa, x2 = 0.5389	-1.2 ± 0.0263	-1.22 ± 0.0263	-1.22 ± 0.0263
5000 kPa, x2 = 0.5949	-1.33 ± 0.0287	-1.35 ± 0.0287	-1.34 ± 0.0287
5000 kPa, x2 = 0.6452	-1.45 ± 0.0311	-1.46 ± 0.0311	-1.45 ± 0.0311
5000 kPa, x2 = 0.6906	-1.55 ± 0.0335	-1.55 ± 0.0335	-1.55 ± 0.0335
5000 kPa, x2 = 0.7317	-1.62 ± 0.0335	-1.64 ± 0.0359	–
5000 kPa, x2 = 0.7692	-1.71 ± 0.0359	–	–
5000 kPa, x2 = 0.8036	-1.79 ± 0.0382	–	–
5000 kPa, x2 = 0.8351	-1.85 ± 0.0382	–	–
5500 kPa, x2 = 0.1263	-0.277 ± 0.00598	-0.278 ± 0.00598	-0.275 ± 0.00598
5500 kPa, x2 = 0.2338	-0.496 ± 0.0105	-0.505 ± 0.0108	-0.525 ± 0.0112
5500 kPa, x2 = 0.3265	-0.682 ± 0.0146	-0.715 ± 0.0153	-0.709 ± 0.0151
5500 kPa, x2 = 0.4071	-0.861 ± 0.0184	-0.881 ± 0.0186	-0.891 ± 0.0189
5500 kPa, x2 = 0.478	-0.991 ± 0.021	-1.03 ± 0.0217	-1.04 ± 0.0222
5500 kPa, x2 = 0.5407	-1.13 ± 0.0239	-1.16 ± 0.0239	-1.18 ± 0.0239
5500 kPa, x2 = 0.5966	-1.25 ± 0.0263	-1.28 ± 0.0263	-1.29 ± 0.0287
5500 kPa, x2 = 0.6468	-1.34 ± 0.0287	-1.38 ± 0.0287	-1.4 ± 0.0287
5500 kPa, x2 = 0.6921	-1.45 ± 0.0311	-1.48 ± 0.0311	-1.49 ± 0.0311
5500 kPa, x2 = 0.7331	-1.52 ± 0.0335	-1.56 ± 0.0335	-1.57 ± 0.0335
5500 kPa, x2 = 0.7705	-1.61 ± 0.0335	-1.64 ± 0.0335	–
5500 kPa, x2 = 0.8047	-1.67 ± 0.0359	-1.69 ± 0.0359	–
5500 kPa, x2 = 0.8361	-1.74 ± 0.0359	–	–
5500 kPa, x2 = 0.865	-1.78 ± 0.0382	–	–
5500 kPa, x2 = 0.8918	-1.82 ± 0.0382	–	–
5500 kPa, x2 = 0.9019	-1.83 ± 0.0382	–	–
6000 kPa, x2 = 0.127	-0.232 ± 0.00502	-0.255 ± 0.0055	-0.277 ± 0.00598
6000 kPa, x2 = 0.235	-0.442 ± 0.00932	-0.479 ± 0.0103	-0.494 ± 0.0105
6000 kPa, x2 = 0.3279	-0.621 ± 0.0131	-0.675 ± 0.0143	-0.693 ± 0.0148
6000 kPa, x2 = 0.4087	-0.761 ± 0.0163	-0.839 ± 0.0179	-0.853 ± 0.0182
6000 kPa, x2 = 0.4796	-0.89 ± 0.0189	-0.973 ± 0.0208	-1.02 ± 0.0217
6000 kPa, x2 = 0.5423	-1.01 ± 0.0215	-1.09 ± 0.0232	-1.12 ± 0.0239
6000 kPa, x2 = 0.5982	-1.09 ± 0.0232	-1.21 ± 0.0263	-1.22 ± 0.0263
6000 kPa, x2 = 0.6483	-1.19 ± 0.0239	-1.32 ± 0.0287	-1.34 ± 0.0287
6000 kPa, x2 = 0.6934	-1.27 ± 0.0263	-1.4 ± 0.0287	-1.42 ± 0.0311
6000 kPa, x2 = 0.7344	-1.33 ± 0.0287	-1.48 ± 0.0311	-1.49 ± 0.0311
6000 kPa, x2 = 0.7716	-1.4 ± 0.0287	-1.54 ± 0.0335	-1.56 ± 0.0335
6000 kPa, x2 = 0.8057	-1.48 ± 0.0311	-1.6 ± 0.0335	-1.61 ± 0.0335
6000 kPa, x2 = 0.8248	–	–	-1.64 ± 0.0359
6000 kPa, x2 = 0.837	-1.52 ± 0.0335	-1.66 ± 0.0359	–
6000 kPa, x2 = 0.8658	-1.59 ± 0.0335	-1.7 ± 0.0359	–
6000 kPa, x2 = 0.8924	-1.63 ± 0.0335	-1.71 ± 0.0359	–
6000 kPa, x2 = 0.9171	-1.65 ± 0.0359	–	–
6000 kPa, x2 = 0.931	-1.63 ± 0.0335	–	–
6000 kPa, x2 = 0.94	-1.67 ± 0.0359	–	–
6000 kPa, x2 = 0.9614	-1.64 ± 0.0359	–	–
6000 kPa, x2 = 0.9813	-1.48 ± 0.0311	–	–
6500 kPa, x2 = 0.1277	–	–	-0.254 ± 0.0055
6500 kPa, x2 = 0.2361	–	–	-0.464 ± 0.0098
6500 kPa, x2 = 0.3292	–	–	-0.638 ± 0.0136
6500 kPa, x2 = 0.4101	–	–	-0.787 ± 0.0167
6500 kPa, x2 = 0.4811	–	–	-0.92 ± 0.0196
6500 kPa, x2 = 0.5438	–	–	-1.04 ± 0.022
6500 kPa, x2 = 0.5996	–	–	-1.14 ± 0.0239
6500 kPa, x2 = 0.6496	–	–	-1.24 ± 0.0263
6500 kPa, x2 = 0.6947	–	–	-1.33 ± 0.0287
6500 kPa, x2 = 0.7355	–	–	-1.39 ± 0.0287
6500 kPa, x2 = 0.7727	–	–	-1.45 ± 0.0311
6500 kPa, x2 = 0.8066	–	–	-1.5 ± 0.0311
6500 kPa, x2 = 0.8378	–	–	-1.56 ± 0.0335
6500 kPa, x2 = 0.8665	–	–	-1.6 ± 0.0335
7000 kPa, x2 = 0.1283	–	–	-0.232 ± 0.00502
7000 kPa, x2 = 0.237	–	–	-0.421 ± 0.00908
7000 kPa, x2 = 0.3304	–	–	-0.587 ± 0.0124
7000 kPa, x2 = 0.4114	–	–	-0.728 ± 0.0155
7000 kPa, x2 = 0.4824	–	–	-0.857 ± 0.0182
7000 kPa, x2 = 0.5451	–	–	-0.95 ± 0.0203
7000 kPa, x2 = 0.6009	–	–	-1.05 ± 0.0225
7000 kPa, x2 = 0.6509	–	–	-1.13 ± 0.0239
7000 kPa, x2 = 0.6958	–	–	-1.21 ± 0.0263
7000 kPa, x2 = 0.7366	–	–	-1.26 ± 0.0263
7000 kPa, x2 = 0.7736	–	–	-1.33 ± 0.0287
7000 kPa, x2 = 0.8075	–	–	-1.38 ± 0.0287
7000 kPa, x2 = 0.8385	–	–	-1.42 ± 0.0311
7000 kPa, x2 = 0.8671	–	–	-1.44 ± 0.0311
7000 kPa, x2 = 0.8935	–	–	-1.46 ± 0.0311
7000 kPa, x2 = 0.9179	–	–	-1.47 ± 0.0311
7500 kPa, x2 = 0.1289	–	–	-0.2 ± 0.0043
7500 kPa, x2 = 0.238	–	–	-0.356 ± 0.00765
7500 kPa, x2 = 0.3315	–	–	-0.488 ± 0.0105
7500 kPa, x2 = 0.4127	–	–	-0.625 ± 0.0134
7500 kPa, x2 = 0.4837	–	–	-0.727 ± 0.0155
7500 kPa, x2 = 0.5464	–	–	-0.819 ± 0.0174
7500 kPa, x2 = 0.6021	–	–	-0.904 ± 0.0191
7500 kPa, x2 = 0.652	–	–	-0.973 ± 0.0208
7500 kPa, x2 = 0.6969	–	–	-1.04 ± 0.0222
7500 kPa, x2 = 0.7376	–	–	-1.1 ± 0.0234
7500 kPa, x2 = 0.7745	–	–	-1.15 ± 0.0239
7500 kPa, x2 = 0.8083	–	–	-1.19 ± 0.0263
7500 kPa, x2 = 0.8392	–	–	-1.24 ± 0.0263
7500 kPa, x2 = 0.8677	–	–	-1.25 ± 0.0263
7500 kPa, x2 = 0.894	–	–	-1.28 ± 0.0263
7500 kPa, x2 = 0.9183	–	–	-1.26 ± 0.0263
7500 kPa, x2 = 0.9409	–	–	-1.24 ± 0.0263
7500 kPa, x2 = 0.962	–	–	-1.17 ± 0.0239

From the NIST ThermoML archive (doi:10.1021/je8001442)
